Measurements reported in patent publication US20230365563A1, “QUINAZOLINE COMPOUND AND APPLICATION THEREOF” (SHANGHAI PHARMACEUTICALS HOLDING CO., LTD., priority 2020, published 2023).
pIC50: −log10 of the molar value. Where a name gives a salt, the structure may show the parent alone. Each block holds one compound with its values, some of them ahead of it.

Experiments:
KRAS-G12D and SOS1 = target: T1, KRAS-G12D and SOS1 (Homo sapiens, UniProt P01116, G12D); test: Inhibition of KRAS-G12D/SOS1 binding (Cisbio binding kit, 665/615 ratio), Effect Embodiment A; conditions: read-out: GTP-KRAS-G12D:SOS1 IC50
T1 construct: purchased
T1 sequence (P01116 1-188 isoform P01116-2 G12D): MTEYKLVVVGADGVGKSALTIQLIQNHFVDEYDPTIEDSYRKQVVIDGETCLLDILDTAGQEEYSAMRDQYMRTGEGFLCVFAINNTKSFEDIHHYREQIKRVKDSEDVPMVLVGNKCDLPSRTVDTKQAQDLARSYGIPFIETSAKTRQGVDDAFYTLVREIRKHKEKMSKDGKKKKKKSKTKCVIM
Procedure, shortened: (§1)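 Duplicate wells received an eleven-point, threefold compound titration whose top point was the stock solution; final DMSO 1%.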

KRAS_G12D and cRAF = target: T2, KRAS_G12D and cRAF (Homo sapiens, UniProt P01116, G12D); test: Inhibition of KRAS_G12D/cRAF binding (Cisbio binding kit, 665/615 ratio), Effect Embodiment B; conditions: read-out: GTP-KRAS-G12D:CRAF IC50
T2 construct: purchased
T2 sequence (P01116 1-188 isoform P01116-2 G12D): as above
Procedure, shortened: as §1

KRAS_WT and SOS1 = target: T3, KRAS_WT and SOS1 (Homo sapiens, UniProt P01116); test: Inhibition of KRAS_WT/SOS1 binding (Cisbio binding kit, 665/615 ratio), Effect Embodiment C; conditions: read-out: GTP-KRAS-WT:SOS1 IC50
T3 construct: purchased
T3 sequence (P01116 1-188 isoform P01116-2): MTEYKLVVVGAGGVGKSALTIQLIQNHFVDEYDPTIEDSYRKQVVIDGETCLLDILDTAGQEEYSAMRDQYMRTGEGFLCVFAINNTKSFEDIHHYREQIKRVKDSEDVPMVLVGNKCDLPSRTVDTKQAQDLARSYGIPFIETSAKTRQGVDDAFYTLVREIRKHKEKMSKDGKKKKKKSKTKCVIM
Procedure, shortened: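 Compounds tested as 3-fold, 11-point dilutions in duplicate at 1% DMSO final against the KRAS_WT/SOS1 binding system. IC50 derived by nonlinear regression fit.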

Structure (SMILES): C[C@@H]1CCCN1CCCOc1nc(N2CC3CCC(C2)N3)c2cc(Cl)c(-c3cc(O)cc4ccccc34)c(F)c2n1 (single isomer, unassigned) [Compound 108a, 4-((S or R)-4-((1R,5S)-3,8-diazabicyclo[3.2.1]octan-3-yl)-6-chloro-8-fluoro-2-(3-((R)-2-methylpyrrolidin-1-yl)propoxy)quinazolin-7-yl)naphthalen-2-ol dihydrochloride]
pIC50 (KRAS-G12D and SOS1): 7.25
pIC50 (KRAS_G12D and cRAF): 6.67
pIC50 (KRAS_WT and SOS1): 5.64

Structure (SMILES): Oc1cc(-c2c(Cl)cc3c(N4CC5CCC(C4)N5)nc(OCC(F)CN4CCCC4)nc3c2F)c2ccccc2c1 (single isomer, unassigned) [Compound 109a, 4-((S or R)-4-((1R,5S)-3,8-diazabicyclo[3.2.1]octan-3-yl)-6-chloro-8-fluoro-2-((S or R)-2-fluoro-3-(pyrrolidin-1-yl)propoxy)quinazolin-7-yl)naphthalen-2-ol hydrochloride]
pIC50 (KRAS-G12D and SOS1): 7.57
pIC50 (KRAS_G12D and cRAF): 7.05
pIC50 (KRAS_WT and SOS1): 5.59

Structure (SMILES): Oc1cc(-c2c(Cl)cc3c(N4CC5CCC(C4)N5)nc(OCC(F)CN4CCCC4)nc3c2F)c2ccccc2c1 (single isomer, unassigned) [Compound 109b, 4-((S or R)-4-((1R,5S)-3,8-diazabicyclo[3.2.1]octan-3-yl)-6-chloro-8-fluoro-2-((R or S)-2-fluoro-3-(pyrrolidin-1-yl)propoxy)quinazolin-7-yl)naphthalen-2-ol hydrochloride]
pIC50 (KRAS-G12D and SOS1): 7.24
pIC50 (KRAS_G12D and cRAF): 6.68
pIC50 (KRAS_WT and SOS1): 5.27

Structure (SMILES): CN(CCCCN1CCN(CCCCN)CC1)CCCOc1nc(N2CC3CCC(C2)N3)c2cc(Cl)c(-c3cc(O)cc4ccccc34)c(F)c2n1 (single isomer, unassigned) [Compound 111, (S or R) 4-(2-(3-((4-(4-aminobutyl)piperazin-1-yl)butyl)(methyl)amino)propoxy)-4-((1R,5S)-3,8-diazabicyclo[3.2.1]octan-3-yl)-6-chloro-8-fluoroquinazolin-7-yl)naphthalen-2-ol pentahydrochloride]
pIC50 (KRAS-G12D and SOS1): 7.65
pIC50 (KRAS_G12D and cRAF): 6.97
pIC50 (KRAS_WT and SOS1): 5.95

Structure (SMILES): CCCCN(C)CCCOc1nc(N2CC3CCC(C2)N3)c2cc(Cl)c(-c3cc(O)cc4ccccc34)c(F)c2n1 (single isomer, unassigned) [Compound 113, 4-((S or R)-4-((1R,5S)-3,8-diazabicyclo[3.2.1]octan-3-yl)-2-(3-(butyl(methyl)amino)propoxy)-6-chloro-8-fluoroquinazolin-7-yl)naphthalen-2-ol hydrochloride]
pIC50 (KRAS-G12D and SOS1): 7.29
pIC50 (KRAS_G12D and cRAF): 6.89
pIC50 (KRAS_WT and SOS1): 5.40

Structure (SMILES): CC(C)CN(C)CCCOc1nc(N2C[C@H]3CC[C@@H](C2)N3)c2cc(Cl)c(-c3cc(O)cc4ccccc34)c(F)c2n1 (single isomer, unassigned) [Compound 115, 4-((S or R)-4-((1R,5S)-3,8-diazacyclo[3.2.1]octan-3-yl)-6-chloro-8-fluoro-2-(3-(isobutyl(methyl)amino)propoxy)quinazolin-7-yl)naphthalen-2-ol dihydrochloride]
pIC50 (KRAS-G12D and SOS1): 7.17
pIC50 (KRAS_G12D and cRAF): 6.89
pIC50 (KRAS_WT and SOS1): 5.38

Structure (SMILES): Oc1cc(-c2c(Cl)cc3c(N4CC5CCC(C4)N5)nc(OCCN4CCCC4)nc3c2F)c2ccccc2c1 (single isomer, unassigned) [Compound 116, 4-((S or R)-4-((1R,5S)-3,8-diazabicyclo[3.2.1]octan-3-yl)-6-chloro-8-fluoro-2-(2-(pyrrolidin-1-yl)ethoxy)quinazolin-7-yl)naphthalen-2-ol dihydrochloride]
pIC50 (KRAS-G12D and SOS1): 7.18
pIC50 (KRAS_G12D and cRAF): 6.72
pIC50 (KRAS_WT and SOS1): 5.47

Structure (SMILES): Oc1cc(-c2c(Cl)cc3c(N4CC5CCC(C4)N5)nc(OCCC4(N5CCCC5)CC4)nc3c2F)c2ccccc2c1 (single isomer, unassigned) [Compound 117, 4-((S or R)-4-((1R,5S)-3,8-diazabicyclo[3.2.1]octan-3-yl)-6-chloro-8-fluoro-2-(2-(1-(pyrrolidin-1-yl)cyclopropyl)ethoxy)quinazolin-7-yl)naphthalen-2-ol dihydrochloride]
pIC50 (KRAS-G12D and SOS1): 7.23
pIC50 (KRAS_G12D and cRAF): 6.87
pIC50 (KRAS_WT and SOS1): 5.67

Structure (SMILES): CC(C)(COc1nc(N2CC3CCC(C2)N3)c2cc(Cl)c(-c3cc(O)cc4ccccc34)c(F)c2n1)CN1C2CCC1COC2 (single isomer, unassigned) [Compound 120, 4-((7S or R)-2-(3-(3-oxa-8-azabicyclo[3.2.1]octan-8-yl)-2,2-dimethylpropoxy)-4-((1R,5S)-3,8-diazabicyclo[3.2.1]octan-3-yl)-6-chloro-8-fluoroquinazolin-7-yl)naphthalen-2-ol dihydrochloride]
pIC50 (KRAS-G12D and SOS1): 7.44
pIC50 (KRAS_G12D and cRAF): 7.14
pIC50 (KRAS_WT and SOS1): 5.57

Structure (SMILES): CN(CCCOc1nc(N2CC3CCC(C2)N3)c2cc(Cl)c(-c3cc(O)cc4ccccc34)c(F)c2n1)CCC(O)CO (single isomer, unassigned) [Compound 148, 4-((3-((S or R)-4-((1R,5S)-3,8-diazabicyclo[3.2.1]octan-3-yl)-6-chloro-8-fluoro-7-(3-hydroxynaphthalen-1-yl)quinazolin-2-yl)oxy)propyl)(methyl)amino)butan-1,2-diol ditrifluoroacetate]
pIC50 (KRAS-G12D and SOS1): 7.54
pIC50 (KRAS_G12D and cRAF): 6.91
pIC50 (KRAS_WT and SOS1): 5.53

More lines, now with the values ahead:

pIC50 (KRAS-G12D and SOS1): 7.33
pIC50 (KRAS_G12D and cRAF): 6.80
pIC50 (KRAS_WT and SOS1): 5.46
Structure (SMILES): Oc1cc(-c2c(Cl)cc3c(N4CC5CCC(C4)N5)nc(OCC(F)(F)CN4CCCC4)nc3c2F)c2ccccc2c1 (single isomer, unassigned) [Compound 107, 4-((S or R)-4-((1R,5S)-3,8-diazabicyclo[3.2.1]octan-3-yl)-6-chloro-2-(2,2-difluoro-3-(pyrrolidin-1-yl)propoxy)-8-fluoroquinazolin-7-yl)naphthalen-2-ol dihydrochloride]

pIC50 (KRAS-G12D and SOS1): 7.40
pIC50 (KRAS_G12D and cRAF): 6.84
pIC50 (KRAS_WT and SOS1): 5.81
Structure (SMILES): CN1CC(C)(COc2nc(N3CC4CCC(C3)N4)c3cc(Cl)c(-c4cc(O)cc5ccccc45)c(F)c3n2)C1 (single isomer, unassigned) [Compound 110, 4-((S or R)-4-((1R,5S)-3,8-diazacyclo[3.2.1]octan-3-yl)-6-chloro-2-((1,3-dimethylnonanetriacyl)methoxy)-8-fluoroquinazin-7-yl)naphthalen-2-ol ditrifluoroacetate]

pIC50 (KRAS-G12D and SOS1): 7.24
pIC50 (KRAS_G12D and cRAF): 6.92
pIC50 (KRAS_WT and SOS1): 5.60
Structure (SMILES): CN1CCC1CCOc1nc(N2CC3CCC(C2)N3)c2cc(Cl)c(-c3cc(O)cc4ccccc34)c(F)c2n1 (single isomer, unassigned) [Compound 112a, 4-((S or R)-4-((1R,5S)-3,8-diazabicyclo[3.2.1]octan-3-yl)-6-chloro-8-fluoro-2-(2-((S or R)-1-methylazetidin-2-yl)ethoxy)quinazolin-7-yl)naphthalen-2-ol dicarboxylate]

pIC50 (KRAS-G12D and SOS1): 7.43
pIC50 (KRAS_G12D and cRAF): 7.00
pIC50 (KRAS_WT and SOS1): 5.34
Structure (SMILES): Oc1cc(-c2c(Cl)cc3c(N4CC5CCC(C4)N5)nc(OCCN4CCCCC4)nc3c2F)c2ccccc2c1 (single isomer, unassigned) [Compound 114, 4-((S or R)-4-((1R,5S)-3,8-diazabicyclo[3.2.1]octan-3-yl)-6-chloro-8-fluoro-2-(2-(piperidin-1-yl)ethoxy)quinazolin-7-yl)naphthalen-2-ol dihydrochloride]

pIC50 (KRAS-G12D and SOS1): 7.71
pIC50 (KRAS_G12D and cRAF): 7.27
pIC50 (KRAS_WT and SOS1): 5.62
Structure (SMILES): CN(C)CC(C)(C)COc1nc(N2CC3CCC(C2)N3)c2cc(Cl)c(-c3cc(O)cc4ccccc34)c(F)c2n1 (single isomer, unassigned) [Compound 118, 4-((S or R)-4-((1R,5S)-3,8-diazabicyclo[3.2.1]octan-3-yl)-6-chloro-2-(3-(dimethylamino)-2,2-dimethylpropoxy)-8-fluoroquinazolin-7-yl)naphthalen-2-ol dihydrochloride]

pIC50 (KRAS-G12D and SOS1): 7.84
pIC50 (KRAS_G12D and cRAF): 7.84
pIC50 (KRAS_WT and SOS1): 6.80
Structure (SMILES): Oc1cc(-c2c(Cl)cc3c(N4CC5CCC(C4)N5)nc(OCC4(CN5C6CCC5COC6)CC4)nc3c2F)c2ccccc2c1 (single isomer, unassigned) [Compound 119, 4-((7S or R)-2-((1-((3-oxa-8-azabicyclo[3.2.1]octan-8-yl)methyl)cyclopropyl)methoxy)-4-((1R,5S)-3,8-diazabicyclo[3.2.1]octan-3-yl)-6-chloro-8-fluoroquinazolin-7-yl)naphthalen-2-ol formate]

pIC50 (KRAS-G12D and SOS1): 7.12
pIC50 (KRAS_G12D and cRAF): 6.83
pIC50 (KRAS_WT and SOS1): 5.54
Structure (SMILES): Oc1cc(-c2c(Cl)cc3c(N4CC5CCC(C4)N5)nc(OCCN4C5CCC4COC5)nc3c2F)c2ccccc2c1 (single isomer, unassigned) [Compound 124, 4-((7S or R)-2-(2-(3-oxa-8-azabicyclo[3.2.1]octan-8-yl)-ethoxy)-4-((1R,5S)-3,8-diazabicyclo[3.2.1]octan-3-yl)-6-chloro-8-fluoroquinazolin-7-yl)naphthalen-2-ol dihydrochloride]

pIC50 (KRAS-G12D and SOS1): 7.28
pIC50 (KRAS_G12D and cRAF): 6.77
pIC50 (KRAS_WT and SOS1): 5.77
Structure (SMILES): C[C@@H]1CN(CCCOc2nc(N3CC4CCC(C3)N4)c3cc(Cl)c(-c4cc(O)cc5ccccc45)c(F)c3n2)C[C@H](C)O1 (single isomer, unassigned) [Compound 125, 4-((S or R)-4-((1R,5S)-3,8-diazacyclo[3.2.1]octan-3-yl)-6-chloro-2-(3-((2S,6R)-2,6-dimethylmorpholine)propoxy)-8-fluoroquinolin-7-yl)naphthalen-2-ol hydrochloride]

pIC50 (KRAS-G12D and SOS1): 7.06
pIC50 (KRAS_G12D and cRAF): 6.60
pIC50 (KRAS_WT and SOS1): 5.19
Structure (SMILES): CN(C)C12CC(COc3nc(N4CC5CCC(C4)N5)c4cc(Cl)c(-c5cc(O)cc6ccccc56)c(F)c4n3)(C1)C2 (single isomer, unassigned) [Compound 127, 4-((S or R)-4-((1R,5S)-3,8-diazabicyclo[3.2.1]octan-3-yl)-6-chloro-2-((3-(dimethylamino)bicyclo[1.1.1]pentan-1-yl)methoxy)-8-fluoroquinazolin-7-yl)naphthalen-2-ol hydrochloride]
